# Experimental data reported in PMC5218480 (PLoS ONE, 2017).
# Test system: MV-4-11 cells
# Assay: Gene expression microarray analysis (Affymetrix PrimeView) and GSEA
# Type: cell-based, human
# Set-up: RFU PODN (11730768_x_at) / Fold change /veh PODN (11730768_x_at) / RFU LINC00158 (11744669_a_at) / Fold change /veh LINC00158 (11744669_a_at) / RFU DUSP10 (11751237_a_at) / Fold change /veh DUSP10 (11751237_a_at) / RFU ID3 (11757404_x_at) / Fold change /veh ID3 (11757404_x_at) / RFU PLEKHG5 (11737974_s_at) / Fold change /veh PLEKHG5 (11737974_s_at) / RFU LRRC4B (11730491_at) / Fold change /veh LRRC4B (11730491_at) / RFU GIMAP4 (11747438_a_at) / Fold change /veh GIMAP4 (11747438_a_at) / RFU KRT8 (11758183_x_at) / Fold change /veh KRT8 (11758183_x_at) / RFU CNN1 (11734310_a_at) / Fold change /veh CNN1 (11734310_a_at) / RFU VPS37D (11726825_at) / Fold change /veh VPS37D (11726825_at) / RFU C10orf10 (11716522_x_at) / Fold change /veh C10orf10 (11716522_x_at) / RFU KIR2DL2 /// KIR2DL4 /// KIR2DL5A /// KIR2DL5B /// KIR2DS1 /// KIR2DS2 /// KIR2DS3 /// KIR2DS4 /// KIR3DL3 /// KIR3DL3 /// KIR3DS1 (11738374_at) / Fold change /veh KIR2DL2 /// KIR2DL4 /// KIR2DL5A /// KIR2DL5B /// KIR2DS1 /// KIR2DS2 /// KIR2DS3 /// KIR2DS4 /// KIR3DL3 /// KIR3DL3 /// KIR3DS1 (11738374_at) / RFU C1QL1 (11718748_at) / Fold change /veh C1QL1 (11718748_at) / RFU TMPRSS4 (11747572_a_at) / Fold change /veh TMPRSS4 (11747572_a_at) / RFU HAMP (11756126_x_at) / Fold change /veh HAMP (11756126_x_at) / RFU RNFT2 (11725882_a_at) / Fold change /veh RNFT2 (11725882_a_at) / RFU NR4A2 (11747474_a_at) / Fold change /veh NR4A2 (11747474_a_at) / RFU ABCC12 (11746883_a_at) / Fold change /veh ABCC12 (11746883_a_at) / RFU TMEM136 (11760407_x_at) / Fold change /veh TMEM136 (11760407_x_at) / RFU CLDN22 /// WWC2 (11732394_at) / Fold change /veh CLDN22 /// WWC2 (11732394_at) / RFU HLA-DPB1 (11760878_x_at) / Fold change /veh HLA-DPB1 (11760878_x_at) / RFU SPINT1 (11716480_a_at) / Fold change /veh SPINT1 (11716480_a_at) / RFU GAP43 (11754022_s_at) / Fold change /veh GAP43 (11754022_s_at) / RFU A4GNT (11735810_at) / Fold change /veh A4GNT (11735810_at) / RFU PRB3 (11715151_x_at) / Fold change /veh PRB3 (11715151_x_at) / RFU TUBB4B (11761932_at) / Fold change /veh TUBB4B (11761932_at) / RFU CAPN14 (11732068_a_at) / Fold change /veh CAPN14 (11732068_a_at) / RFU TMCC2 (11721928_a_at) / Fold change /veh TMCC2 (11721928_a_at) / RFU IRGQ (11745062_a_at) / Fold change /veh IRGQ (11745062_a_at) / RFU FAM174B (11720279_a_at) / Fold change /veh FAM174B (11720279_a_at) / RFU TMPRSS4 (11748680_a_at) / Fold change /veh TMPRSS4 (11748680_a_at) / RFU FAM212B (11763350_a_at) / Fold change /veh FAM212B (11763350_a_at) / RFU PLEKHG5 (11743358_a_at) / Fold change /veh PLEKHG5 (11743358_a_at) / RFU ZSCAN30 (11745921_a_at) / Fold change /veh ZSCAN30 (11745921_a_at) / RFU CMKLR1 (11741424_a_at) / Fold change /veh CMKLR1 (11741424_a_at) / RFU LOC101060620 /// MAPK8IP1 (11723275_at) / Fold change /veh LOC101060620 /// MAPK8IP1 (11723275_at) / RFU SPTSSB (11747773_x_at) / Fold change /veh SPTSSB (11747773_x_at) / RFU PRSS12 (11739890_at) / Fold change /veh PRSS12 (11739890_at) / RFU BIN1 (11741810_x_at) / Fold change /veh BIN1 (11741810_x_at) / RFU WNT11 (11732464_a_at) / Fold change /veh WNT11 (11732464_a_at) / RFU C10orf10 (11716521_a_at) / Fold change /veh C10orf10 (11716521_a_at) / RFU C5orf56 (11738089_at) / Fold change /veh C5orf56 (11738089_at) / RFU CYB561 (11721691_x_at) / Fold change /veh CYB561 (11721691_x_at) / RFU ANKRD19P (11752326_a_at) / Fold change /veh ANKRD19P (11752326_a_at) / RFU OR2T12 /// OR2T33 /// OR2T8 (11738714_s_at) / Fold change /veh OR2T12 /// OR2T33 /// OR2T8 (11738714_s_at) / RFU VCAN (11748164_a_at) / Fold change /veh VCAN (11748164_a_at) / RFU JSRP1 (11732532_at) / Fold change /veh JSRP1 (11732532_at) / RFU KRTAP10-11 (11738290_x_at) / Fold change /veh KRTAP10-11 (11738290_x_at) / RFU MYO3A (11730013_a_at) / Fold change /veh MYO3A (11730013_a_at) / RFU EBF3 (11725865_a_at) / Fold change /veh EBF3 (11725865_a_at) / RFU CAMK2N1 (11719241_x_at) / Fold change /veh CAMK2N1 (11719241_x_at) / RFU C5orf56 (11738088_a_at) / Fold change /veh C5orf56 (11738088_a_at) / RFU OLFML3 (11715873_a_at) / Fold change /veh OLFML3 (11715873_a_at) / RFU LOC100653217 /// NTM (11731650_a_at) / Fold change /veh LOC100653217 /// NTM (11731650_a_at) / RFU MAPK11 (11762145_a_at) / Fold change /veh MAPK11 (11762145_a_at) / RFU FIZ1 (11724087_x_at) / Fold change /veh FIZ1 (11724087_x_at) / RFU OASL (11726364_x_at) / Fold change /veh OASL (11726364_x_at) / RFU SOX15 (11748057_x_at) / Fold change /veh SOX15 (11748057_x_at) / RFU CD79A (11719716_a_at) / Fold change /veh CD79A (11719716_a_at) / RFU HIST1H1D (11736915_at) / Fold change /veh HIST1H1D (11736915_at) / RFU CASKIN2 (11723855_a_at) / Fold change /veh CASKIN2 (11723855_a_at) / RFU LOC730098 (11760151_x_at) / Fold change /veh LOC730098 (11760151_x_at) / RFU OR4N2 (11742367_at) / Fold change /veh OR4N2 (11742367_at) / RFU PRRT2 (11749266_a_at) / Fold change /veh PRRT2 (11749266_a_at) / RFU SNX32 (11753110_a_at) / Fold change /veh SNX32 (11753110_a_at) / RFU CDHR5 (11726645_a_at) / Fold change /veh CDHR5 (11726645_a_at) / RFU RCAN1 (11760418_a_at) / Fold change /veh RCAN1 (11760418_a_at) / RFU FAM167A (11723789_a_at) / Fold change /veh FAM167A (11723789_a_at) / RFU FAM26E (11764081_at) / Fold change /veh FAM26E (11764081_at) / RFU ISYNA1 (11749810_s_at) / Fold change /veh ISYNA1 (11749810_s_at) / RFU ACY1 (11761880_at) / Fold change /veh ACY1 (11761880_at) / RFU 11764098_at / Fold change /veh 11764098_at / RFU SAMD14 (11745864_x_at) / Fold change /veh SAMD14 (11745864_x_at) / RFU NPB (11741838_a_at) / Fold change /veh NPB (11741838_a_at) / RFU TMPRSS6 (11731388_a_at) / Fold change /veh TMPRSS6 (11731388_a_at) / RFU KRTAP10-2 (11738614_at) / Fold change /veh KRTAP10-2 (11738614_at) / RFU ARHGAP8 /// PRR5-ARHGAP8 (11727945_x_at) / Fold change /veh ARHGAP8 /// PRR5-ARHGAP8 (11727945_x_at) / RFU KRTAP5-7 /// NADSYN1 (11734609_at) / Fold change /veh KRTAP5-7 /// NADSYN1 (11734609_at) / RFU RASL12 (11751679_a_at) / Fold change /veh RASL12 (11751679_a_at) / RFU CDKN2B (11736163_a_at) / Fold change /veh CDKN2B (11736163_a_at) / RFU PRF1 (11729649_at) / Fold change /veh PRF1 (11729649_at) / RFU, ZNF638 /// ZNF638-IT1 / Fold change vs veh, ZNF638 /// ZNF638-IT1 / RFU, PANK3 / Fold change vs veh, PANK3 / RFU, SH3YL1 / Fold change vs veh, SH3YL1 / RFU, ZEB2 / Fold change vs veh, ZEB2 / RFU, NRIP1 / Fold change vs veh, NRIP1 / RFU, PTTG1IP / Fold change vs veh, PTTG1IP / RFU, CAPN2 / Fold change vs veh, CAPN2 / RFU, MED14 / Fold change vs veh, MED14 / RFU, SNORA58 / Fold change vs veh, SNORA58 / RFU, C1orf63 / Fold change vs veh, C1orf63 / RFU, LRRFIP1 / Fold change vs veh, LRRFIP1 / RFU, NDUFAF7 / Fold change vs veh, NDUFAF7 / RFU, SLC12A2 / Fold change vs veh, SLC12A2 / RFU, IBTK / Fold change vs veh, IBTK / RFU, ESF1 / Fold change vs veh, ESF1 / Fold change vs veh, TMEM50B / RFU, TAOK1 / Fold change vs veh, TAOK1 / RFU, ACBD3 / Fold change vs veh, ACBD3 / RFU, TMA16 / Fold change vs veh, TMA16 / RFU, RWDD3 / Fold change vs veh, RWDD3 / RFU, BCAT1 / Fold change vs veh, BCAT1 / RFU, EDEM3 / Fold change vs veh, EDEM3 / RFU, TMEM33 / Fold change vs veh, TMEM33 / RFU, WDR75 / Fold change vs veh, WDR75 / RFU, AHCTF1 / Fold change vs veh, AHCTF1 / RFU, TFRC / Fold change vs veh, TFRC / RFU, ZDHHC17 / Fold change vs veh, ZDHHC17 / RFU, NOM1 / Fold change vs veh, NOM1 / RFU, ARL8B / Fold change vs veh, ARL8B / RFU, ZBTB11 / Fold change vs veh, ZBTB11 / RFU, TAMM41 / Fold change vs veh, TAMM41 / RFU, KIAA1704 /// LOC100996395 / Fold change vs veh, KIAA1704 /// LOC100996395 / RFU, ING1 / Fold change vs veh, ING1 / RFU, TRMT61B / Fold change vs veh, TRMT61B / RFU, FUBP3 / Fold change vs veh, FUBP3 / RFU, TP53 / Fold change vs veh, TP53 / RFU, TNKS2 / Fold change vs veh, TNKS2 / RFU, ZFP14 / Fold change vs veh, ZFP14 / RFU, ACTR2 / Fold change vs veh, ACTR2 / RFU, PPP3R1 / Fold change vs veh, PPP3R1 / RFU, PIK3R1 / Fold change vs veh, PIK3R1 / RFU, HNRNPA1 / Fold change vs veh, HNRNPA1 / RFU, RNF170 / Fold change vs veh, RNF170 / RFU, ZNF28 / Fold change vs veh, ZNF28 / RFU, RNGTT / Fold change vs veh, RNGTT / RFU, OGT / Fold change vs veh, OGT / RFU, BRD1 / Fold change vs veh, BRD1 / RFU, MARS / Fold change vs veh, MARS / RFU, ZNF655 / Fold change vs veh, ZNF655 / RFU, FAHD1 / Fold change vs veh, FAHD1 / RFU, BDP1 / Fold change vs veh, BDP1 / RFU, LRRCC1 / Fold change vs veh, LRRCC1 / RFU, ARID1A / Fold change vs veh, ARID1A / RFU, ZNF146 / Fold change vs veh, ZNF146 / RFU, ZNF330 / Fold change vs veh, ZNF330 / RFU, GPN3 / Fold change vs veh, GPN3 / RFU, C9orf123 / Fold change vs veh, C9orf123 / RFU, N4BP2L2 / Fold change vs veh, N4BP2L2 / RFU, ARFIP1 / Fold change vs veh, ARFIP1 / RFU, FAM179B / Fold change vs veh, FAM179B / RFU, BCL10 / Fold change vs veh, BCL10 / RFU, UHRF1BP1L / Fold change vs veh, UHRF1BP1L / RFU, BET1 / Fold change vs veh, BET1 / RFU, CNOT2 / Fold change vs veh, CNOT2 / RFU, ZNF268 / Fold change vs veh, ZNF268 / Fold change vs veh, ZNF507 / RFU, DGCR2 / Fold change vs veh, DGCR2 / RFU, WDSUB1 / Fold change vs veh, WDSUB1 / Fold change vs veh, HSP90B1 /// MIR3652 / RFU, ADSS / Fold change vs veh, ADSS / RFU, GK / Fold change vs veh, GK / RFU, ZNF148 / Fold change vs veh, ZNF148 / RFU, TAF9 / Fold change vs veh, TAF9 / RFU, SLC1A5 / Fold change vs veh, SLC1A5 / RFU, SLMO2 / Fold change vs veh, SLMO2 / RFU, ABCC4 / Fold change vs veh, ABCC4 / RFU, LOC101060439 /// RAP1B / Fold change vs veh, LOC101060439 /// RAP1B / RFU, RFX7 / Fold change vs veh, RFX7 / RFU, GTPBP10 / Fold change vs veh, GTPBP10 / RFU, CNEP1R1 / Fold change vs veh, CNEP1R1 / RFU, BIVM-ERCC5 /// ERCC5 / Fold change vs veh, BIVM-ERCC5 /// ERCC5 / RFU, ILF3 / Fold change vs veh, ILF3 / RFU 11762660_at / Fold change /veh 11762660_at / RFU VCAN (11757783_s_at) / Fold change /veh VCAN (11757783_s_at) / RFU DDX43 (11728927_at) / Fold change /veh DDX43 (11728927_at) / RFU KRT8 (11758188_x_at) / Fold change /veh KRT8 (11758188_x_at) / RFU NKD1 (11759106_at) / Fold change /veh NKD1 (11759106_at) / RFU SRD5A1 (11742802_a_at) / Fold change /veh SRD5A1 (11742802_a_at) / RFU TPSAB1 /// TPSB2 (11721975_s_at) / Fold change /veh TPSAB1 /// TPSB2 (11721975_s_at) / RFU GSTM3 (11746129_a_at) / Fold change /veh GSTM3 (11746129_a_at) / RFU IL23R (11737362_x_at) / Fold change /veh IL23R (11737362_x_at) / RFU TMEM51 (11727254_a_at) / Fold change /veh TMEM51 (11727254_a_at) / RFU PIWIL2 (11732686_x_at) / Fold change /veh PIWIL2 (11732686_x_at) / RFU ORM1 (11744905_x_at) / Fold change /veh ORM1 (11744905_x_at) / RFU CCDC152 (11743942_at) / Fold change /veh CCDC152 (11743942_at) / RFU ECM1 (11717891_a_at) / Fold change /veh ECM1 (11717891_a_at) / RFU IL23R (11748794_a_at) / Fold change /veh IL23R (11748794_a_at) / RFU TNFAIP8L3 (11732012_x_at) / Fold change /veh TNFAIP8L3 (11732012_x_at) / RFU MBOAT4 (11741988_at) / Fold change /veh MBOAT4 (11741988_at) / RFU 11764193_at / Fold change /veh 11764193_at / RFU TMEM53 (11763286_at) / Fold change /veh TMEM53 (11763286_at) / RFU MAGEB2 (11727129_at) / Fold change /veh MAGEB2 (11727129_at) / RFU TMEM200A (11744735_a_at) / Fold change /veh TMEM200A (11744735_a_at) / RFU CCDC152 (11751479_a_at) / Fold change /veh CCDC152 (11751479_a_at) / RFU FAM211A (11726209_a_at) / Fold change /veh FAM211A (11726209_a_at) / RFU RGS16 (11746705_a_at) / Fold change /veh RGS16 (11746705_a_at) / RFU VCAN (11755009_s_at) / Fold change /veh VCAN (11755009_s_at) / RFU RHOB (11743442_s_at) / Fold change /veh RHOB (11743442_s_at) / RFU RGS16 (11720943_a_at) / Fold change /veh RGS16 (11720943_a_at) / RFU RGS16 (11720944_at) / Fold change /veh RGS16 (11720944_at) / RFU, VPS4B / Fold change vs veh, VPS4B / RFU, CREB1 / Fold change vs veh, CREB1 / RFU, DNAJC13 / Fold change vs veh, DNAJC13 / RFU, GNAQ / Fold change vs veh, GNAQ / RFU, CDK5R1 / Fold change vs veh, CDK5R1 / RFU, ZRANB3 / Fold change vs veh, ZRANB3 / RFU, CUL4A / Fold change vs veh, CUL4A / RFU, CCNY / Fold change vs veh, CCNY / RFU, UFL1 / Fold change vs veh, UFL1 / RFU, COG3 / Fold change vs veh, COG3 / RFU, DIAPH2 / Fold change vs veh, DIAPH2 / RFU, SKA2 / Fold change vs veh, SKA2 / RFU, AFF3 / Fold change vs veh, AFF3 / RFU, LMF1 / Fold change vs veh, LMF1 / RFU, IPO11 / Fold change vs veh, IPO11 / RFU, DFFB / Fold change vs veh, DFFB / RFU, FOXP1 / Fold change vs veh, FOXP1 / RFU, CARD8 / Fold change vs veh, CARD8 / RFU, STRN3 / Fold change vs veh, STRN3 / RFU, ADK / Fold change vs veh, ADK / RFU, RASSF2 / Fold change vs veh, RASSF2 / RFU, WIPF1 / Fold change vs veh, WIPF1 / RFU, LARP1B / Fold change vs veh, LARP1B / RFU, RASA1 / Fold change vs veh, RASA1 / RFU, RB1 / Fold change vs veh, RB1 / RFU, PPFIA1 / Fold change vs veh, PPFIA1 / RFU, MAT2A / Fold change vs veh, MAT2A / RFU, CCT5 / Fold change vs veh, CCT5 / RFU, WDR92 / Fold change vs veh, WDR92 / RFU, CUX1 / Fold change vs veh, CUX1 / RFU, TTC7A / Fold change vs veh, TTC7A / RFU, TMEM135 / Fold change vs veh, TMEM135 / RFU, DEPTOR / Fold change vs veh, DEPTOR / RFU, CPM / Fold change vs veh, CPM / RFU, DNAJB6 / Fold change vs veh, DNAJB6 / RFU, CACNA2D3 / Fold change vs veh, CACNA2D3 / RFU, DTX4 / Fold change vs veh, DTX4 / RFU, TFCP2 / Fold change vs veh, TFCP2 / RFU, GMCL1 /// GMCL1P1 / Fold change vs veh, GMCL1 /// GMCL1P1 / RFU, AEBP2 / Fold change vs veh, AEBP2 / RFU, SNHG1 /// SNORD22 /// SNORD25 /// SNORD26 /// SNORD27 /// SNORD28 /// SNORD29 /// SNORD31 / Fold change vs veh, SNHG1 /// SNORD22 /// SNORD25 /// SNORD26 /// SNORD27 /// SNORD28 /// SNORD29 /// SNORD31 / Fold change (Aza/veh), C12orf56 (ProbeSet 11735607_a_at) / Fold change (ACY-1035/veh), C12orf56 (ProbeSet 11735607_a_at) / Fold change (Aza/veh), FGFR1OP (ProbeSet 11751329_s_at) / Fold change (ACY-1035/veh), FGFR1OP (ProbeSet 11751329_s_at) / Fold change (Aza/veh), VPS36 (ProbeSet 11739960_a_at) / Fold change (ACY-1035/veh), VPS36 (ProbeSet 11739960_a_at) / RFU SYPL1 (11715823_x_at) / Fold change /veh SYPL1 (11715823_x_at) / RFU IGFBP7 (11715501_s_at) / Fold change /veh IGFBP7 (11715501_s_at) / RFU REEP3 (11722064_at) / Fold change /veh REEP3 (11722064_at) / RFU IGLL1 (11728026_x_at) / Fold change /veh IGLL1 (11728026_x_at): dose or concentration left out as unconfirmed
# Conditions: ProbeSet 11722022_s_at; LIST D
smiles,measurement,value
Nc1ncn([C@@H]2O[C@H](CO)[C@@H](O)[C@H]2O)c(=O)n1 [azacitidine],"Fold change vs veh, CDK5R1",0.77
